In PubChem BioAssay AID2060601 (Molecular Pharmacology Branch, DTP, NCI, 2025):

Tested on: 874868-142-R-J2-PDC complex spheroids, growth % test/control
Assay: Anticancer human tumor 874868-142-R-J2-PDC patient-derived head and neck squamous carcinoma cell line growth inhibition [CLK]
Details: for IC50: curve of first compound; for viability, T/C: stronger effect = lower value
Text: A high-throughput screen of multi-cell type tumor spheroids was designed to identify active combinations of […] and targeted small molecules. Complex spheroids include a stromal component modeled by human endothelial cells (HUVEC) and fibroblasts modeled by human mesenchymal stem cells (MSCs). The concentration ranges selected for each drug and investigational agent were based upon clinically achievable concentrations if the clinical Cmax of the agent was known.
Compounds. The drugs and investigational agents: cirtuvivint (SM08502; NSC835563), CC-671 (NSC850746), vemurafenib (NSC761431), tapotoclax (NSC804041), sotorasib (NSC818433), adagrasib (NSC831453), MRTX-1133 (NSC836407), BAY2416964 (NSC825713), copanlisib (NSC816437), inavolisib (NSC800729), abemaciclib (NSC768073), osimertinib (NSC779217), entinostat (NSC756642), eltanexor (KPT-8602, NSC794443), venetoclax (NSC766270), ceralasertib (NSC777638), bortezomib (NSC756655), olaparib (NSC753686), talazoparib (NSC767125), alisertib (NSC759677), peposertib (NSC802822), gemcitabine (NSC613327), 5-fluorouracil (NSC19893), SN-38 (NSC673596), oxaliplatin (NSC266046), paclitaxel (NSC125973), and doxorubicin (NSC123127), were obtained from the National Cancer Institute (NCI) Developmental Therapeutics Program Chemical Repository. The FDA-approved anticancer drug set is available from the Developmental Therapeutics Program at https://dtp.cancer.gov/organization/dscb/obtaining/available plates.htm. […] The stock solutions were prepared in dimethyl sulfoxide (DMSO, Sigma-Aldrich, St. Louis, MO, cat. D2650), except for the platinum complexes which were prepared in saline (Quality Biological, Gaithersburg, MD, cat. 114-055-101), at 800-fold the tested concentration and stored at -70 degrees C prior to their use. All drugs and investigational agents were tested over a range starting from a high concentration at or near the clinical Cmax and decreasing in half-log increments. If the clinical Cmax for an agent had not been determined, the highest concentration tested was 10 microM.
Cell Culture. All cells were maintained in an incubator at 37 degrees C and 5% CO2 with 95% humidity. The PDC lines were cultured according to standard operating procedures established by the NCI PDMR. Briefly, all PDCs were thawed and cultured in Matrigel-coated flasks prepared with a working solution of 1X Ham's F-12 nutrient mix, without supplementation (Invitrogen, Waltham, MA, cat. 11765054), 100 U/mL penicillin-streptomycin (Invitrogen, cat. 15140122), and 2.5% Matrigel (Corning Inc., Corning, NY, cat. 354248) for the first three passages. The 947758-054-R-J2-PDC line was cultured in 6B/Colon 1A media, which includes advanced DMEM/F-12 (Thermo Fisher Scientific, cat. 12634028), 10 mM HEPES (Thermo Fisher Scientific, cat. 15630080), 1X GlutaMAX supplement (Thermo Fisher Scientific, cat. 35050061), 0.1 mg/mL primocin (InvivoGen, cat. ant-pm-2), 10% defined fetal bovine serum, heat inactivated (HyClone Laboratories Inc., cat. SH30070.03HI), 1.25 mM N-Acetyl-L-cysteine (Sigma-Aldrich, cat. A9165), 10 mM nicotinamide (Sigma-Aldrich, cat. N0636), 1X B-27 supplement (Thermo Fisher Scientific, cat. 17504044), 1X N-2 supplement (Thermo Fisher Scientific, cat. 17502048), and 10 microM Y-27632 dihydrochloride (Tocris Bioscience, cat. 1254). The 876862-298-R-J1-PDC was cultured in 6E media, which includes all 6B/Colon 1A media components plus 50% L-WRN conditioned media (ATCC, cat. CRL-3276), 50 ng/mL recombinant human EGF recombinant protein (hEGF; Thermo Fisher Scientific, cat. PHG0311), 10 ng/mL recombinant human fibroblast growth factor 10 (hGFG-10; PeproTech, cat. 100-26), 1 ng/mL recombinant human fibroblast growth factor 2 (hFGF-2; PeproTech, cat. 100-18B), and 1 µM prostaglandin E2 (PGE2; Tocris, cat. 2296). The 227483-062-R1-J1-PDC line was cultured in Panc media, containing all 6E components except hFGF-2, with the addition of 500 nM SB-431542 (Selleckchem, cat. S1067) and 10 nM gastrin (Tocris, cat. 3006). […]

[1] = second compound 0.0316 µM, first compound 0.0316 µM
[2] = second compound 0.0316 µM, first compound 0.1 µM
[3] = second compound 0.0316 µM, first compound 0.316 µM
[4] = second compound 0.0316 µM, first compound 1 µM
[5] = second compound 0.0316 µM, first compound 3.16 µM
[6] = second compound 0.0316 µM, first compound 10 µM
[7] = second compound 0.1 µM, first compound 0.0316 µM
[8] = second compound 0.1 µM, first compound 0.1 µM
[9] = second compound 0.1 µM, first compound 0.316 µM
[10] = second compound 0.1 µM, first compound 1 µM
[11] = second compound 0.1 µM, first compound 3.16 µM
[12] = second compound 0.1 µM, first compound 10 µM
[13] = second compound 0.316 µM, first compound 0.0316 µM
[14] = second compound 0.316 µM, first compound 0.1 µM
[15] = second compound 0.316 µM, first compound 0.316 µM
[16] = second compound 0.316 µM, first compound 1 µM
[17] = second compound 0.316 µM, first compound 3.16 µM
[18] = second compound 0.316 µM, first compound 10 µM
[19] = second compound 1 µM, first compound 0.0316 µM
[20] = second compound 1 µM, first compound 0.1 µM
[21] = second compound 1 µM, first compound 0.316 µM
[22] = second compound 1 µM, first compound 1 µM
[23] = second compound 1 µM, first compound 3.16 µM
[24] = second compound 1 µM, first compound 10 µM
[25] = second compound 3.16 µM, first compound 0.0316 µM
[26] = second compound 3.16 µM, first compound 0.1 µM
[27] = second compound 3.16 µM, first compound 0.316 µM
[28] = second compound 3.16 µM, first compound 1 µM
[29] = second compound 3.16 µM, first compound 3.16 µM
[30] = second compound 3.16 µM, first compound 10 µM
[31] = second compound 10 µM, first compound 0.0316 µM
[32] = second compound 10 µM, first compound 0.1 µM
[33] = second compound 10 µM, first compound 0.316 µM
[34] = second compound 10 µM, first compound 1 µM
[35] = second compound 10 µM, first compound 3.16 µM
[36] = second compound 10 µM, first compound 10 µM
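Also: spheroids exposed to the compounds for 7 days.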

In the case of `C#Cc1c(F)ccc2cc(O)cc(-c3ncc4c(N5CC6CCC(C5)N6)nc(OCC56CCCN5CC(F)C6)nc4c3F)c12` (centres undefined) + CN1CCN(c2cc(C(=O)Nc3cc4cc(-c5cnn(C)c5)ccc4cn3)ccn2)CC1, the IC50 (second compound 0.0316 µM) is reported as 8540 nM, the IC50 (second compound 0.1 µM) is reported as 1410 nM and the IC50 (second compound 0.316 µM) is reported as less than 31.6 nM. The IC50 (second compound 1 µM) was less than 31.6 nM, the IC50 (second compound 3.16 µM) was less than 31.6 nM and the IC50 (second compound 10 µM) was less than 31.6 nM. The viability, T/C [1] was 98.2%, the viability, T/C [2] was 85.1% and the viability, T/C [3] was 76.3%. It also gave a viability, T/C [4] of 73%, a viability, T/C [5] of 49.8% and a viability, T/C [6] of 51.2%. It also gave a viability, T/C [7] of 69.2%, a viability, T/C [8] of 74.1% and a viability, T/C [9] of 68.8%. For the same compound, the viability, T/C [10] was 51.2%, the viability, T/C [11] was 41.5% and the viability, T/C [12] was 54.2%. It also gave a viability, T/C [13] of 21%, a viability, T/C [14] of 24% and a viability, T/C [15] of 17.3%. For the same compound, the viability, T/C [16] was 13%, the viability, T/C [17] was 15.5% and the viability, T/C [18] was 15.4%. It also gave a viability, T/C [19] of 0.39%, a viability, T/C [20] of 0.42% and a viability, T/C [21] of 0.39%. The viability, T/C [22] was 0.91%, the viability, T/C [23] was 0.5% and the viability, T/C [24] was 1.33%. It also gave a viability, T/C [25] of 0.37%, a viability, T/C [26] of 2.5% and a viability, T/C [27] of 0.31%. For the same compound, the viability, T/C [28] was 0.32%, the viability, T/C [29] was 0.26% and the viability, T/C [30] was 4.54%. The viability, T/C [31] was 0.53%, the viability, T/C [32] was 1.9% and the viability, T/C [33] was 3.6%. It also gave a viability, T/C [34] of 0.18%, a viability, T/C [35] of 0.9% and a viability, T/C [36] of 6.16%.
`C=C(F)C(=O)N1CCN(c2nc(OCC3CCCN3C)nc3c2CCN(c2cccc4cccc(Cl)c24)C3)CC1CC#N` (centres undefined) + CN1CCN(c2cc(C(=O)Nc3cc4cc(-c5cnn(C)c5)ccc4cn3)ccn2)CC1 was tested, and the IC50 (second compound 0.0316 µM) was 4160 nM, the IC50 (second compound 0.1 µM) was 2800 nM and the IC50 (second compound 0.316 µM) was less than 31.6 nM. The IC50 (second compound 1 µM) was less than 31.6 nM, the IC50 (second compound 3.16 µM) was less than 31.6 nM and the IC50 (second compound 10 µM) was less than 31.6 nM. The viability, T/C [1] was 99.9%, the viability, T/C [2] was 85.3% and the viability, T/C [3] was 92%. It also gave a viability, T/C [4] of 93.2%, a viability, T/C [5] of 60.8% and a viability, T/C [6] of 15.7%. It also gave a viability, T/C [7] of 69.1%, a viability, T/C [8] of 70% and a viability, T/C [9] of 75%. It also gave a viability, T/C [10] of 62%, a viability, T/C [11] of 48.8% and a viability, T/C [12] of 4.16%. For the same compound, the viability, T/C [13] was 16.7%, the viability, T/C [14] was 17.8% and the viability, T/C [15] was 22.6%. For the same compound, the viability, T/C [16] was 16.4%, the viability, T/C [17] was 23.8% and the viability, T/C [18] was 0.16%. For the same compound, the viability, T/C [19] was 0.51%, the viability, T/C [20] was 0.57% and the viability, T/C [21] was 2.72%. It also gave a viability, T/C [22] of 0.61%, a viability, T/C [23] of 0.21% and a viability, T/C [24] of 0.13%. It also gave a viability, T/C [25] of 0.32%, a viability, T/C [26] of 0.27% and a viability, T/C [27] of 0.26%. It also gave a viability, T/C [28] of 0.45%, a viability, T/C [29] of 1.88% and a viability, T/C [30] of 0.15%. For the same compound, the viability, T/C [31] was 0.24%, the viability, T/C [32] was 0.24% and the viability, T/C [33] was 2.62%. The viability, T/C [34] was 0.28%, the viability, T/C [35] was 0.53% and the viability, T/C [36] was 0.23%.
